US20250221966A1, “RXFP1 AGONISTS” (BRISTOL-MYERS SQUIBB COMPANY, priority 2021, published 2025)

Target: T1, human RXFP1 (Homo sapiens, UniProt Q9HBX9)
T1 construct: expressed in transfected cells
T1 sequence (Q9HBX9 1-757): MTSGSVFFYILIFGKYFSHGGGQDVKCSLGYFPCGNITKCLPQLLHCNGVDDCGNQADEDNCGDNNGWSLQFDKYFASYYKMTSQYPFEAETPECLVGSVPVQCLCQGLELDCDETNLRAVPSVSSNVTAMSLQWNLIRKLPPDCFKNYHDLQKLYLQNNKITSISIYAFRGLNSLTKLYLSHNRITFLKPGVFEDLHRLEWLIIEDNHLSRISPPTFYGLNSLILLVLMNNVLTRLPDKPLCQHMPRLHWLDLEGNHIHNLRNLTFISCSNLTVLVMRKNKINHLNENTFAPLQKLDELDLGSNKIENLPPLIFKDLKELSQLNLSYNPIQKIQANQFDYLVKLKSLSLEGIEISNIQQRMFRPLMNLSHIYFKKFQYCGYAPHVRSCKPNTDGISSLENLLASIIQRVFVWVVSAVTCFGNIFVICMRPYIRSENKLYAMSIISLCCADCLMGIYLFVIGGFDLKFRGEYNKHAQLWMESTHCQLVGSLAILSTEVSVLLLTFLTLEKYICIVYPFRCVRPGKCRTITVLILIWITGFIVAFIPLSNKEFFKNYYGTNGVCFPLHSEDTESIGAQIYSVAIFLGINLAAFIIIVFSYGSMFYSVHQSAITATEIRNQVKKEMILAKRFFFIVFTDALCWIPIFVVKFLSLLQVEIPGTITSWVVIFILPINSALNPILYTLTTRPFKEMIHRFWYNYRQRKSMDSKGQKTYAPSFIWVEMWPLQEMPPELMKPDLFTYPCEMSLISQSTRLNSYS
Experiment: RXFP1 cAMP assay (hRXFP1 HEK293 cAMP assay, HTRF)
Format: cell-based
Conditions: HEK293 cells stably expressing human RXFP1, 30 min at room temperature, read-out: cAMP hRXFP1 HEK293 Assay EC50
Outline: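 hRXFP1-HEK293 stable line; HBSS + Ca/Mg, 20 mM HEPES, 0.05% BSA, 0.5 mM IBMX; cpd 0.010 nM–50 μM, 2% DMSO; 30 min RT; lysis, HTRF cAMP detection; 4-PL fit.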

| Structure (SMILES) | EC50 |
| --- | --- |
| CNC(=O)OC(C(=O)O)c1ccc(F)c(-c2ccc(OC)c(C(=O)N[C@@H]3C4CCC(/C4=C/C(F)(F)F)[C@@H]3C(=O)Nc3ccc(F)c(C(F)(F)F)c3)c2)c1 (stereo partly drawn) [compound 180] | 5 nM |
| COc1ccc(-c2cc(C3=NOC4COCC34)ccc2F)cc1C(=O)N[C@H]1[C@@H](C(=O)Nc2ccc(F)c(C(F)(F)F)c2)[C@H]2CC[C@@H]1/C2=C\C1CC1 (stereo partly drawn) [compound 910] | 3.4 nM |
| COc1ccc(-c2cc(C(=O)O)ccc2F)cc1C(=O)N[C@@H]1C2CCC(/C2=C/C(=O)N2CC(F)(F)C2)[C@@H]1C(=O)Nc1ccc(F)c(C(F)(F)F)c1 (stereo partly drawn) [compound 324] | 2240 nM |
| COc1ccc(C2=NOC(CO)C2CO)cc1C(=O)N[C@H]1[C@@H](C(=O)Nc2ccc(F)c(C(F)(F)F)c2)[C@H]2CC[C@@H]1/C2=C\C1CC1 (single isomer, unassigned) [compound 657] | 312 nM |
| COc1cc(F)c(F)cc1C(=O)N[C@@H]1C2CCC(/C2=C/Cc2ccccc2)[C@@H]1C(=O)Nc1ccc(F)c(C(F)(F)F)c1 (stereo partly drawn) [compound 57] | 550 nM |
| COc1cc(F)c(F)cc1C(=O)N[C@@H]1C2CCC(/C2=C/c2cccnc2)[C@@H]1C(=O)Nc1ccc(F)c(C(F)(F)F)c1 (stereo partly drawn) [compound 22] | 700 nM |
| COc1ccc(C2=NOC3COCC23)cc1C(=O)N[C@H]1[C@@H](C(=O)N[C@@H](C)C2(C)CC2)[C@H]2CC[C@@H]1/C2=C\C1CC1 (stereo partly drawn) [compound 609] | 130 nM |
| COc1ccc(C2=NO[C@H]3C[C@H](CO)C[C@@H]23)cc1C(=O)N[C@H]1[C@@H](C(=O)N[C@H](C)C2(C)CC2)[C@H]2CC[C@@H]1/C2=C\C1CC(F)(F)C1 [compound 823] | 2.6 nM |
| COc1ncc(-c2ccc(OC)c(C(=O)N[C@@H]3C4CCC(/C4=C/C4CC4)[C@@H]3C(=O)Nc3ccc(F)c(C(F)(F)F)c3)c2)cn1 (stereo partly drawn) [compound 279] | 15 nM |
| COc1ccc(C2=NOC(CCO)C2)cc1C(=O)N[C@@H]1C2CCC(/C2=C/C2CCC2)[C@@H]1C(=O)Nc1ccc(F)c(C(F)(F)F)c1 (stereo partly drawn) [compound 400] | 31 nM |
| COc1ccc(C2=NOC3CS(=O)(=O)CC23)cc1C(=O)N[C@@H]1C2CCC(/C2=C/C2CC2)[C@@H]1C(=O)Nc1ccc(F)c(C(F)(F)F)c1 (single isomer, unassigned) [compound 443] | 5 nM |
| COc1ccc(-c2cc(C(OC(=O)NC(C)(C)C)C(=O)O)ccc2F)cc1C(=O)N[C@H]1[C@@H](C(=O)Nc2ccc(F)c(C(F)(F)F)c2)[C@H]2CC[C@@H]1/C2=C\C1CC(F)(F)C1 (stereo partly drawn) [compound 935] | 2.5 nM |
| COc1cc(F)c(F)cc1C(=O)N[C@@H]1C2CCC(/C2=C/c2cccs2)[C@@H]1C(=O)Nc1ccc(F)c(C(F)(F)F)c1 (stereo partly drawn) [compound 124] | 210 nM |
| COc1ccc(-c2ccc(C(CC(=O)O)C(F)(F)F)cc2F)cc1C(=O)N[C@H]1[C@@H](C(=O)Nc2ccc(F)c(C(F)(F)F)c2)[C@H]2CC[C@@H]1/C2=C\C1CCCC1 (stereo partly drawn) [compound 892] | 9.9 nM |
| COc1cc(F)c(F)cc1C(=O)N[C@@H]1C2CCC(/C2=C/Br)[C@@H]1C(=O)Nc1ccc(F)c(C(F)(F)F)c1 (stereo partly drawn) [Example 11] | 230 nM |
| COc1ccc(-c2nc(C(=O)O)co2)cc1C(=O)N[C@@H]1C2CCC(C2=C(C)C)[C@@H]1C(=O)Nc1ccc(F)c(C(F)(F)F)c1 (stereo partly drawn) [Example 113] | 1800 nM |
| COc1c(F)cc(C2=NOC3CC(O)(C(F)(F)F)CC23)cc1C(=O)N[C@H]1[C@@H](C(=O)N[C@H](C)C2(C)CC2)[C@H]2CC[C@@H]1/C2=C\c1cnc(C(F)(F)F)s1 (stereo partly drawn) [compound 917] | 1.3 nM |
| COc1ccc(-c2cc(C(=O)O)ccc2F)cc1C(=O)NC1C2CCC(/C2=C/c2cn(C[Si](C)(C)C)nn2)[C@@H]1C(=O)Nc1ccc(F)c(C(F)(F)F)c1 (stereo partly drawn) [Example 325] | 4830 nM |
| COc1ccc(C2=NOC3CC(CO)CC23)cc1C(=O)N[C@H]1[C@@H](C(=O)Nc2ccc(F)c(C(F)(F)F)c2)[C@H]2CC[C@@H]1/C2=C\c1csc(C)n1 (stereo partly drawn) [compound 805] | 4.1 nM |
| COc1ccc(C2=NOC3COCC23)cc1C(=O)N[C@H]1[C@@H](C(=O)Nc2ccc(F)c(C(F)(F)F)c2)[C@H]2CC[C@@H]1/C2=C\c1cscn1 (stereo partly drawn) [compound 737] | 3.2 nM |
| COc1ccc(C2CCCN2C(=O)CCO)cc1C(=O)N[C@@H]1C2CCC(C2=CC2CC2)[C@@H]1C(=O)Nc1ccc(F)c(C(F)(F)F)c1 (stereo partly drawn) [compound 667] | 384 nM |
| COc1ccc(C2=NOC(CC(=O)O)C2)cc1C(=O)N[C@@H]1C2CCC(/C2=C/C2CCC2)[C@@H]1C(=O)Nc1ccc(F)c(C(F)(F)F)c1 (stereo partly drawn) [compound 394] | 49 nM |
| COc1ccc(-n2cc(C(NC(=O)C3CCOCC3)C(=O)O)cn2)cc1C(=O)N[C@@H]1C2CCC(/C2=C/C(F)(F)F)[C@@H]1C(=O)Nc1ccc(F)c(C(F)(F)F)c1 (stereo partly drawn) [compound 347] | 62 nM |
| COc1ccc(C2=NOC(C(=O)O)C2)cc1C(=O)N[C@H]1[C@@H](C(=O)Nc2ccc(F)c(C(F)(F)F)c2)[C@H]2CC[C@@H]1/C2=C\C1CC1 (mixture of isomers) [Example 384, 3-(3-(((1R,2R,3S,4R,Z)-7-(cyclopropylmethylene)-3-((4-fluoro-3-(trifluoromethyl)phenyl)carbamoyl)bicyclo[2.2.1]heptan-2-yl)carbamoyl)-4-methoxyphenyl)-4,5-dihydroisoxazole-5-carboxylic acid] | 123 nM |
| COc1ccc(-c2cnn3c2COCC3)cc1C(=O)N[C@H]1[C@@H](C(=O)N[C@H](C)C2(C)CC2)[C@H]2CC[C@@H]1/C2=C\C1CC1 [compound 745] | 1.2 nM |
| COc1cc(F)c(F)cc1C(=O)N[C@@H]1C2CCC(/C2=C/c2cccc(Oc3ccccc3)c2)[C@@H]1C(=O)Nc1ccc(F)c(C(F)(F)F)c1 (stereo partly drawn) [compound 46] | 120 nM |
| COc1ccc(-c2cc(C(=O)O)ccc2F)cc1C(=O)N[C@@H]1C2CCC(/C2=C/C2CC2)[C@@H]1C(=O)NC1CCC1 (stereo partly drawn) [compound 202] | 180 nM |
| COc1ccc(C2=CCCNC2)cc1C(=O)N[C@@H]1C2CCC(C2=C(C)C)[C@@H]1C(=O)Nc1ccc(F)c(C(F)(F)F)c1 (stereo partly drawn) [Example 140] | 700 nM |

Further compounds by falling EC50, results first:

| EC50 | Structure (SMILES) |
| --- | --- |
| 2270 nM | COc1ccc(-c2cc(C(=O)O)ccc2F)cc1C(=O)N[C@@H]1C2CCC(/C2=C/c2cn(Cc3ccccc3)nn2)[C@@H]1C(=O)Nc1ccc(F)c(C(F)(F)F)c1 (stereo partly drawn) [compound 326] |
| 263 nM | COc1ccc(C2CC3CN(C(=O)OC(C)(C)C)CC32)cc1C(=O)N[C@H]1[C@@H](C(=O)Nc2ccc(F)c(C(F)(F)F)c2)[C@H]2CC[C@@H]1/C2=C\C1CC1 (single isomer, unassigned) [compound 730] |
| 139 nM | COc1ccc(-c2cc(C(=O)O)ccc2F)cc1C(=O)N[C@@H]1C2CCC(/C2=C/C2CC2)[C@@H]1C(=O)N[C@@H](C)c1ccccc1C(F)(F)F (stereo partly drawn) [compound 262] |
| 137 nM | COc1ccc(C2=NOC3COCC23)cc1C(=O)N[C@H]1[C@@H](C(=O)NCc2ccccc2C#N)[C@H]2CC[C@@H]1/C2=C\C1CC1 (stereo partly drawn) [compound 613] |
| 110 nM | CCc1cccc(/C=C2\C3CCC2[C@H](C(=O)Nc2ccc(F)c(C(F)(F)F)c2)[C@@H]3NC(=O)c2cc(F)c(F)cc2OC)c1 (stereo partly drawn) [compound 29] |
| 82 nM | COc1ccc(C2=NOC3COCC23)cc1C(=O)N[C@H]1[C@@H](C(=O)NCc2ccccc2OC(F)(F)F)[C@H]2CC[C@@H]1/C2=C\C1CC1 (stereo partly drawn) [compound 588] |
| 69 nM | COc1ccc(-c2cccc(C(F)(F)F)n2)cc1C(=O)N[C@@H]1C2CCC(/C2=C/C2CC2)[C@@H]1C(=O)Nc1ccc(F)c(C(F)(F)F)c1 (stereo partly drawn) [compound 283] |
| 8 nM | COc1ccc(-c2cccc3c2CN(C(=O)C2CCC2)C3)cc1C(=O)N[C@@H]1C2CCC(/C2=C/C2CC2)[C@@H]1C(=O)Nc1ccc(F)c(C(F)(F)F)c1 (stereo partly drawn) [compound 872] |
| 7.3 nM | COc1ccc(C2=NOC3C(O)CCC23)cc1C(=O)N[C@H]1[C@@H](C(=O)Nc2ccc(F)c(C(F)(F)F)c2)[C@H]2CC[C@@H]1/C2=C\C1CC1 (single isomer, unassigned) [compound 483] |
| 6.7 nM | COc1ccc(C2=NOC(C)(CO)C2)cc1C(=O)N[C@H]1[C@@H](C(=O)Nc2ccc(F)c(C(F)(F)F)c2)[C@H]2CC[C@@H]1C2=CC1CC1 (single isomer, unassigned) [compound 480] |
| 4.3 nM | COc1ccc(C2=NO[C@H]3CC(CO)C[C@@H]23)cc1C(=O)N[C@H]1[C@@H](C(=O)Nc2ccc(F)c(C(F)(F)F)c2)[C@H]2CC[C@@H]1/C2=C\CC1CCC1 (stereo partly drawn) [compound 837] |
| 3 nM | COc1ccc(-c2cc(C(C)OC(=O)Nc3ccc(F)cc3)ccc2F)cc1C(=O)N[C@@H]1C2CCC(/C2=C/C2CC2)[C@@H]1C(=O)Nc1ccc(F)c(C(F)(F)F)c1 (stereo partly drawn) [compound 226] |
| 1.8 nM | COc1ccc(C2=NOC3CC(O)(C(F)(F)F)CC23)cc1C(=O)N[C@H]1[C@@H](C(=O)N[C@H](C)C2(C)CC2)[C@H]2CC[C@@H]1/C2=C\C1CC1 (stereo partly drawn) [compound 859] |
| 1.3 nM | COc1ccc(C2=NOC3CC(C)(CO)CC23)cc1C(=O)N[C@H]1[C@@H](C(=O)Nc2ccc(F)c(C(F)(F)F)c2)[C@H]2CC[C@@H]1/C2=C\C1CC1 (stereo partly drawn) [compound 735] |
